Results on two molecules are retold here after patent US12157741B2, “Macrocyclic inhibitors of DYRK1A” (DANA-FARBER CANCER INSTITUTE, INC., priority 2018, dated 2024).

Like-named read-outs stand apart in the source and are kept apart here.

What all share (assay type): binding
Assay [1] concerns the target T1, various enzymes (Homo sapiens, UniProt O14757).
T1 sequence (O14757 1-476): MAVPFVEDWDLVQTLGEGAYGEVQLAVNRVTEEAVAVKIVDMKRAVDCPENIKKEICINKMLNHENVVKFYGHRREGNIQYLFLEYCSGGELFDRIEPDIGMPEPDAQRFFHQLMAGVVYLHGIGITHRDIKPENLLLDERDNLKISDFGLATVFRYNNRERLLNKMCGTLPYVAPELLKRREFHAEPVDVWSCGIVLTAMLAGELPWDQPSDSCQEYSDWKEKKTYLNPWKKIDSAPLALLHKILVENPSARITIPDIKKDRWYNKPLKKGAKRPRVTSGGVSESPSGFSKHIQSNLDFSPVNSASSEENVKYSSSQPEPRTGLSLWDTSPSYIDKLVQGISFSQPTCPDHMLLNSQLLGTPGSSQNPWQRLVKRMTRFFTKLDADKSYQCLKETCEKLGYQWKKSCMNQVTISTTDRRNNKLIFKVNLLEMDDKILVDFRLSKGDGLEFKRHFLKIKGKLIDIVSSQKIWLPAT
The conditions noted are these: compound 1 uM. On the procedure: (§1) Ambit profiling was conducted in accordance with the manufacturer's instructions.

For assay [2], the target named is various enzymes (Homo sapiens, UniProt O15197). The conditions noted are these: compound 1 uM. On the procedure: as §1
various enzymes (Homo sapiens, UniProt O15197), sequence (O15197 32-1021): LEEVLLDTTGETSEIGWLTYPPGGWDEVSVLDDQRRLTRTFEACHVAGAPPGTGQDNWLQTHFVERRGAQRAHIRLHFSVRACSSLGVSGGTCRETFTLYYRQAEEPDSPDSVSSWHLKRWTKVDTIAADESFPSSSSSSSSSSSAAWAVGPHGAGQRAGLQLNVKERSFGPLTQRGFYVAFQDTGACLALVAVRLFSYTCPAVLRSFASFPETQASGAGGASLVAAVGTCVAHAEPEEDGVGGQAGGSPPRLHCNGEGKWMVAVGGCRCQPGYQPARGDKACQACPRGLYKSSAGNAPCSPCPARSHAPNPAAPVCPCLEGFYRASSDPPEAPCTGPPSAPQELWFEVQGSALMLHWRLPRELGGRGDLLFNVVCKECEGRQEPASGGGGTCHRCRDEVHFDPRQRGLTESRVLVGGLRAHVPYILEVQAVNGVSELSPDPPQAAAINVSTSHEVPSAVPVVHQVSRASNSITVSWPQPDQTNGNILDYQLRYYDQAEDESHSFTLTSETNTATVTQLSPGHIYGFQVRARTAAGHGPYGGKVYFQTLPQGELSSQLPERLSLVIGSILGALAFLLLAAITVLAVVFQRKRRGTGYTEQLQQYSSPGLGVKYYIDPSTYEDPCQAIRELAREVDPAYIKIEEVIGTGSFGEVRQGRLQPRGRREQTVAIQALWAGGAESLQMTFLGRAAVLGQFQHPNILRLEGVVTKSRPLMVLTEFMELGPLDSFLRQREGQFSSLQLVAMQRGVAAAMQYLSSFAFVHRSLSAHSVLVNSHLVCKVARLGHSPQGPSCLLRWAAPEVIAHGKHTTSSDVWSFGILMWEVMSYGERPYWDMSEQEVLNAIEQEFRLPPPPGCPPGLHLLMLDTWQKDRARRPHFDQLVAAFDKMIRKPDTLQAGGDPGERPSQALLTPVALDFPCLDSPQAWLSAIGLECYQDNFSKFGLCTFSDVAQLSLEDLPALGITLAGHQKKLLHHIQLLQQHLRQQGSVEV
The target in assay [3] is T2, various enzymes (Homo sapiens, UniProt O60285).
T2 sequence (O60285 1-661): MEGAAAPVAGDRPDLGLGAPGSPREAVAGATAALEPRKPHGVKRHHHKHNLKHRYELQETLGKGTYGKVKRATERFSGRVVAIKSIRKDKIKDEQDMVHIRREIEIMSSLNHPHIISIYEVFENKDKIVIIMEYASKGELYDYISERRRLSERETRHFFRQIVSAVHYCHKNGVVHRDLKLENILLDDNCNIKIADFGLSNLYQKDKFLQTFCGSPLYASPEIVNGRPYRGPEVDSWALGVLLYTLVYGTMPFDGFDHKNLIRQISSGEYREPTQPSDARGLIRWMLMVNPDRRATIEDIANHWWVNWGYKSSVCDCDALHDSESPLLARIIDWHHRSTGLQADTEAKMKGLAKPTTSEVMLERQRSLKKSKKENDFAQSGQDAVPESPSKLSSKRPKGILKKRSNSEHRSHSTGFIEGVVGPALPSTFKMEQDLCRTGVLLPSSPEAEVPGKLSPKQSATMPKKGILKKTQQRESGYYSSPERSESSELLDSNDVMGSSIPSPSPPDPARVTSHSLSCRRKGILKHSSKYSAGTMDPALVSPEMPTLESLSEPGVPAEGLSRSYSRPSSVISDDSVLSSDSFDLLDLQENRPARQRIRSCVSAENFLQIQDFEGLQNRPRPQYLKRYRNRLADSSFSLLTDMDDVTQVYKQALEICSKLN
To be noted: compound 1 uM. On the procedure: as §1

The target of assay [4] is various enzymes (Homo sapiens, UniProt O60674). The conditions noted are these: compound 1 uM. On the procedure:
as §1

Assay [5] deals with various enzymes (Homo sapiens, UniProt O75914). The conditions noted are these: compound 1 uM. As for the experimental part:
as §1

The target in assay [6] is various enzymes (Homo sapiens, UniProt P24723). To be noted: compound 1 uM. As for the experimental part:
as §1

Assay [7] addresses various enzymes (Homo sapiens, UniProt P42336, C420R). As for the experimental part: as §1
The target in assay [8] is various enzymes (Homo sapiens, UniProt Q5VT25). The conditions noted are these: compound 1 uM. As for the experimental part:
as §1

In assay [9] the target is T3, various enzymes (Homo sapiens, UniProt Q96L34).
T3 sequence (Q96L34 1-752): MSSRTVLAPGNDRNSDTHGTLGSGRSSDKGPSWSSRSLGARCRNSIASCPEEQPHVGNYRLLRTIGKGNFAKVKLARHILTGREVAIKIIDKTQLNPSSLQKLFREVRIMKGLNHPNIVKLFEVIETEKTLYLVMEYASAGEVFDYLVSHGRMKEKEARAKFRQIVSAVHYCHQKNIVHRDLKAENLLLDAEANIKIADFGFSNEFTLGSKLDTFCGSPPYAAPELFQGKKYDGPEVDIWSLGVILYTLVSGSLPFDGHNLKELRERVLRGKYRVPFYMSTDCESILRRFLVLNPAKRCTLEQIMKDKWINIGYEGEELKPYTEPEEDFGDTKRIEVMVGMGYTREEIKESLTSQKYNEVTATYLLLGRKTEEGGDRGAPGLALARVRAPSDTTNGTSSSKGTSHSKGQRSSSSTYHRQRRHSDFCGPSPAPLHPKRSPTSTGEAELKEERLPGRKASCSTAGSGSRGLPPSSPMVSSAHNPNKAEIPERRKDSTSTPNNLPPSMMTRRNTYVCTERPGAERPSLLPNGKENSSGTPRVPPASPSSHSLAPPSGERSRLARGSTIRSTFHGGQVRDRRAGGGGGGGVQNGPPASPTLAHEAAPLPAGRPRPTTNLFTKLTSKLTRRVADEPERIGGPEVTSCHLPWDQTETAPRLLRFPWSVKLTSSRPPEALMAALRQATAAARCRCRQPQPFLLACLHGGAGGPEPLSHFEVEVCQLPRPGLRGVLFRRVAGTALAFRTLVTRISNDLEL
To be noted: compound 1 uM. On the procedure:
as §1

In assay [10] the target is various enzymes (Homo sapiens, UniProt Q96RR4). To be noted: compound 1 uM. As for the experimental part:
as §1

Assay [11] addresses various enzymes (Homo sapiens, UniProt Q9H422). The conditions noted are these: compound 1 uM. As for the experimental part: as §1
Assay [12] addresses various enzymes (Homo sapiens, UniProt Q9HC98). To be noted: compound 1 uM. On the procedure:
as §1

various enzymes (Homo sapiens, UniProt O60674), sequence (O60674 whole entry): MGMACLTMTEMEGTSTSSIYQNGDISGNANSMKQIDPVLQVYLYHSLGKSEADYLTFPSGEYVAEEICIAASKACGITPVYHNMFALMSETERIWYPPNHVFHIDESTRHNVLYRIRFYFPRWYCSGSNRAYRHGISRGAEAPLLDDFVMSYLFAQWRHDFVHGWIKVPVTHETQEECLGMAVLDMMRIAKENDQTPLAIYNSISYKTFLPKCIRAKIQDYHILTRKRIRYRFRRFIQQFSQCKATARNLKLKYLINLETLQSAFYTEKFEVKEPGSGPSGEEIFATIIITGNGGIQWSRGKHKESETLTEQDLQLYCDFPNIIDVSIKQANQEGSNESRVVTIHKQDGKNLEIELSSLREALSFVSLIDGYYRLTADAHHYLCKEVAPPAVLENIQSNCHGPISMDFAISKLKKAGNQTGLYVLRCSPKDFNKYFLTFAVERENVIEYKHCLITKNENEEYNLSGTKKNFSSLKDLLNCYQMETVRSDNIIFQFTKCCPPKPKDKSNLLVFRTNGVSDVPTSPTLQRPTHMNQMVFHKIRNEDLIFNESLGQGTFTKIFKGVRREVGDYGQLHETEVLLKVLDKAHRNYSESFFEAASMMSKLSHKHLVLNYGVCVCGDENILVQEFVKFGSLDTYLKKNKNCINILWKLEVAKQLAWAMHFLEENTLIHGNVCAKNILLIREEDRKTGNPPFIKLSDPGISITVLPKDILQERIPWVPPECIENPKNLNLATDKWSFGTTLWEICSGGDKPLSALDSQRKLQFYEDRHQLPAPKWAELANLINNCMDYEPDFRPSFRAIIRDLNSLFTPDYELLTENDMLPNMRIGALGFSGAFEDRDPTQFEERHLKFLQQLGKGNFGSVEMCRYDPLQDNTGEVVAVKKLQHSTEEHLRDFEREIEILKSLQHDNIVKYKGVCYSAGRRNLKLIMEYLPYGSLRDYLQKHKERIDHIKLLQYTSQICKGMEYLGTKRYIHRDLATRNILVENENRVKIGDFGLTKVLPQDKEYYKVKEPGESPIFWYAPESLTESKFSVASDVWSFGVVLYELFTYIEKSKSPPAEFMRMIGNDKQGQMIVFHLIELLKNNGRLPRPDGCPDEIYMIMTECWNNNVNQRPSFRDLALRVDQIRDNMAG
various enzymes (Homo sapiens, UniProt P42336, C420R), sequence (P42336 whole entry C420R): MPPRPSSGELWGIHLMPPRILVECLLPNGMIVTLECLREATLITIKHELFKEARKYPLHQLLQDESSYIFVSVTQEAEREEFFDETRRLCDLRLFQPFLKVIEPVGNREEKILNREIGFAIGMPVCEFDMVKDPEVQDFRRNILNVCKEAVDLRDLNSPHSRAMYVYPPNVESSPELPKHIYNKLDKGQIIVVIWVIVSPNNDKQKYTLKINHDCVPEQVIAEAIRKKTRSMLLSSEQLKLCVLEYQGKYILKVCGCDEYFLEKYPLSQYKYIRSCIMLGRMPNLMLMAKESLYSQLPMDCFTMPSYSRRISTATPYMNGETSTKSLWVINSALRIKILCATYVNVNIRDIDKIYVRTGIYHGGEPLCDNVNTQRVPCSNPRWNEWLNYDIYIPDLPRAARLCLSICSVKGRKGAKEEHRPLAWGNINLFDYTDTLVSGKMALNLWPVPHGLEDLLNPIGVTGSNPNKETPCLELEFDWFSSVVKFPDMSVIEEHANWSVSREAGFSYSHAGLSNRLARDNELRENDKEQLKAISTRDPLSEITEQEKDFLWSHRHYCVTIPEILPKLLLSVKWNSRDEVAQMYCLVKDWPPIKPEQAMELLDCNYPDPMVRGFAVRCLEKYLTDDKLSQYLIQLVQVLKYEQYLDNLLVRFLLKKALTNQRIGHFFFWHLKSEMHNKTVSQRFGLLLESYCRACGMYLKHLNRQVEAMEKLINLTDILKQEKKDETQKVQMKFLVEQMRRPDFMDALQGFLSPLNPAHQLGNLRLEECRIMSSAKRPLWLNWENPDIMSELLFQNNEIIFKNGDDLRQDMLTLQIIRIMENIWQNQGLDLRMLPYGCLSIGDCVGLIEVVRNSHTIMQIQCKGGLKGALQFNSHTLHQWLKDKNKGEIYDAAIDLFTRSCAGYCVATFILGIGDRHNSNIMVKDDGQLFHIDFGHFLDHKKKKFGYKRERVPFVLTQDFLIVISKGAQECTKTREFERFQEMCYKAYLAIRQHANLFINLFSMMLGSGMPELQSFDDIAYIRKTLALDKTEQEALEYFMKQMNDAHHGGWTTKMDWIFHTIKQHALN
various enzymes (Homo sapiens, UniProt Q9HC98), sequence (Q9HC98 whole entry): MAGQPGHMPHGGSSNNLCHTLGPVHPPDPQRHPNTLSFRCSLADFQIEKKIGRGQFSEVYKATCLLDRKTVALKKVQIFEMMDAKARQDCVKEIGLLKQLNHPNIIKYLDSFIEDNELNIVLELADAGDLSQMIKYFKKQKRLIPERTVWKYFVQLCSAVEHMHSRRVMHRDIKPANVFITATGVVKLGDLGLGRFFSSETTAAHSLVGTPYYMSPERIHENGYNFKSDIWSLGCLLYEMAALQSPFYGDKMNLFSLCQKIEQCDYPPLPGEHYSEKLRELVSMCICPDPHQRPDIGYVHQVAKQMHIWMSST
various enzymes (Homo sapiens, UniProt O75914), sequence (O75914 whole entry): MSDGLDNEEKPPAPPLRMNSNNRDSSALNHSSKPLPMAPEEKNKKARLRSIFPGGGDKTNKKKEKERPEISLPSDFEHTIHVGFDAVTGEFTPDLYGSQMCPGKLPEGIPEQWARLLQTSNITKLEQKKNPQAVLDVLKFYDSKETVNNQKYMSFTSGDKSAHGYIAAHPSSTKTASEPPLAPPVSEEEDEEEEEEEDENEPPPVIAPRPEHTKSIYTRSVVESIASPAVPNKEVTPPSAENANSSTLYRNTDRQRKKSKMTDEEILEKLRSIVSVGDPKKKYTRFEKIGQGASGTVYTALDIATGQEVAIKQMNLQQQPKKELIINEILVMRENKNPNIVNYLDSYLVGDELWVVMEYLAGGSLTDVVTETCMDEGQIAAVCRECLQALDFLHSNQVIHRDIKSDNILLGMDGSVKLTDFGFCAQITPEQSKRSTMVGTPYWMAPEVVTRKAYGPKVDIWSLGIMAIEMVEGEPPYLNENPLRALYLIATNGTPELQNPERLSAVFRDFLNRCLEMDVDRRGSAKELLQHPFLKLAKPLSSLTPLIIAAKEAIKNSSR
various enzymes (Homo sapiens, UniProt Q96RR4), sequence (Q96RR4 whole entry): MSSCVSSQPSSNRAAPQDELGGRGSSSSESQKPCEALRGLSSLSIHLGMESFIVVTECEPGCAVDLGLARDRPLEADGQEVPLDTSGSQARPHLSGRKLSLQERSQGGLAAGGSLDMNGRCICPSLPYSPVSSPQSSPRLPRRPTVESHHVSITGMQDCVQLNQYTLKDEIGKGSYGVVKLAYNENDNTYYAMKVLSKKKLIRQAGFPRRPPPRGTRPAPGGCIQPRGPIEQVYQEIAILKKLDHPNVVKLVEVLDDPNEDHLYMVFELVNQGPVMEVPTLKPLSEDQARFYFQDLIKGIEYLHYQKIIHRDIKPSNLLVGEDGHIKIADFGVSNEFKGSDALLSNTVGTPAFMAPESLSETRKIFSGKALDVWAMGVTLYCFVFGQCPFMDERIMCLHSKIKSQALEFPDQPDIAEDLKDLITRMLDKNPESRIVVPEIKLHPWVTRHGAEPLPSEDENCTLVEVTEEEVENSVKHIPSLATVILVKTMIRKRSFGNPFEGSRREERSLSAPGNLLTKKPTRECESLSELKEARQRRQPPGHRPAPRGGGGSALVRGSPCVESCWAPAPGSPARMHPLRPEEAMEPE

Regarding `CC(C)N1Cc2nn(C)cc2-c2cnc3[nH]cc(c3c2)-c2cn(nc2C(F)(F)F)CCCC1=O` [Compound 45, (Z)-5-isopropyl-31-methyl-13-(trifluoromethyl)-11H,21H,31H-5-aza-2(3,5)-pyrrolo[2,3-b]pyridina-1(4,1),3(4,3)-dipyrazolacyclononaphan-6-one], the “Ambit profiling: CHEK1” value at various enzymes [1] is given as 100. The “Ambit profiling: EPHB6” value on various enzymes [2] came out at 4.8. The “Ambit profiling: ARK5” value at various enzymes [3] turned out to be 100. Moreover, the “Ambit profiling: JAK2(JH1domain-catalytic)” value on various enzymes [4] was 4.9. At various enzymes [5], the “Ambit profiling: PAK3” value was 12. Moreover, the “Ambit profiling: PRKCH” value at various enzymes [6] stood at 100. The “Ambit profiling: PIK3CA(C420R)” value at various enzymes [7] (compound 1 uM) is 100. In addition, the “Ambit profiling: MRCKA” value on various enzymes [8] amounted to 100. The “Ambit profiling: MARK4” value on various enzymes [9] is recorded as 28. Besides, at various enzymes [10], the “Ambit profiling: CAMKK2” value is 5.8. The “Ambit profiling: HIPK3” value on various enzymes [11] was 15. Also, the “Ambit profiling: NEK6” value on various enzymes [12] is recorded as 98.

Take `COc1c2c(nn1C)CN(C(C)C)C(=O)CCCn1cc(c(C(F)(F)F)n1)-c1c[nH]c3ncc-2cc13` [Compound 50, (Z)-5-isopropyl-35-methoxy-31-methyl-13-(trifluoromethyl)-11H,21H,31H-5-aza-2(3,5)-pyrrolo[2,3-b]pyridina-1(4,1),3(4,3)-dipyrazolacyclononaphan-6-one]: the “Ambit profiling: CHEK1” value at various enzymes [1] was determined as 100. The “Ambit profiling: EPH86” value on various enzymes [2] came out at 0.7. In addition, the “Ambit profiling: ARK5” value at various enzymes [3] came to 100. The “Ambit profiling: JAK2(JH1domain-catalytic)” value on various enzymes [4] worked out at 29. Besides, the “Ambit profiling: PAK3” value at various enzymes [5] is 24. Besides, on various enzymes [6], the “Ambit profiling: PRKCH” value is reported as 85. Besides, on various enzymes [7], the “Ambit profiling: PIK3CA(C420R)” value turned out to be 91. Further, at various enzymes [8], the “Ambit profiling: MRCKA” value worked out at 99. The “Ambit profiling: MARK4” value at various enzymes [9] came to 55. The “Ambit profiling: CAMKK2” value on various enzymes [10] came to 5.8. Besides, the “Ambit profiling: HIPK3” value on various enzymes [11] is 26. The “Ambit profiling: NEK6” value at various enzymes [12] is 100.
